From US20220145092A1, “BIT COMPOSITIONS WITH SIGNIFICANTLY IMPROVED ACTIVITY” (Troy Technology II, Inc., priority 2020, published 2022)

Tested on: Pseudomonas aeruginosa (ATCC 10145)
Assay: MIC by microbroth dilution and synergy index, Pseudomonas aeruginosa
Format: cell-based
Conditions: product level
Procedure: MICs were determined via microbroth dilution using the following specific test parameters:
Necessary organism dilutions via OD600 were calculated based on OD600 of 1.0 being equivalent to 8*10^8 CFU/mL. Biocide dilutions were performed in 2-fold increments for each assay.
Synergy index (SI) scores were calculated according to the mass action equation below:
S.I.=[MIC[A] in-blend/MIC[A] alone]+[MIC[B] in-blend/MIC[B] alone]
Combinations of ingredients were determined to be synergistic (S.I.≤0.5), additive (S.I.>0.5 to 1), indifferent (S.I.>1 to <2) or antagonistic (S.I.≥2), as defined by EUCAST guidelines^1. 1 European Committee for Antimicrobial Susceptibility Testing (EUCAST) of the European Society of Clinical Microbiology and Infectious Diseases (ESCMID). EUCAST Definitive Document E.Def 1.2, May 2000: Terminology relating to methods for the determination of susceptibility of bacteria to antimicrobial agents. Clin. Microbiol. Infect. Off. Publ. Eur. Soc. Clin. Microbiol. Infect. Dis. 6, 503-508 (2000).
MIC values for Mergal BIT20X (20% BIT), individual amines, and 1:1 mixtures of amines and Mergal BIT20X were determined against the test organism Pseudomonas aeruginosa (ATCC 10145) using 96-well microbroth dilution methodology.
Synergy of Jeffamine T403 and Mergal BIT20X mixtures from 1:50 to 50:1 were tested against P. aeruginosa. Jeffamine T403 was diluted to 20% w/w before mixing with Mergal BIT20X at the indicated ratios. The results are plotted in FIG. 1. Jeffamine T403 and Mergal BIT20X are synergistic at ratios with excess T403. In FIG. 1, the x-axis indicates the fractional BIT level in the blend (1=100% BIT, 0=100% T403, 0.5=50% BIT, 50% T403, etc.), the left y-axis is the MIC against Pseudomonas aeruginosa (ATCC 10145), and the right y-axis is the calculated Synergy Index (SI). The dotted line indicates the synergy index cutoff as defined by EUCAST guidelines (SI<0.5). The MIC raw data is presented in Table 3; MIC values are reported on active concentration.

MIC, Amine Only, Avg. [ppm]	MIC, Amine Only, Rep. 1 [ppm]	MIC, Amine Only, Rep.2 [ppm]	SMILES
2500	2500	2500	CC(CN)CCCN (stereo not drawn) [Dytek A]
938	625	1250	NCCNCCNCCN [TETA]
